Values of other authors as cited in US4833164A (E. I. Du Pont de Nemours and Company, priority 1986, dated 1989).

System: lipoxygenase
Settings: Nakadate et al.; Van Wauwe and Goossens; Panganamala et al.

SMILES: Oc1cccc2ccccc12 [Example 1-naphthol, 1-naphthol]
- lipoxygenase inhibitor (literature): lipoxygenase inhibitor
